Results reported in US20110130380A1, “Heteroaryl Kinase Inhibitors” (priority 2009, published 2011).

These compounds were tested against Cdk9/cyclinT1 (Homo sapiens, UniProt P50750) (assay: Cdk9/cyclinT1 IMAP Protocol (fluorescence polarization kinase assay)). Details: Cdk9_cyclinT1_IC50, Table V; generated using one of the two Cdk9/cyclinT1 assays (IMAP or Alpha Screen), not stated which; ATP 6 uM.
Chain of Cdk9/cyclinT1 (P50750 whole entry): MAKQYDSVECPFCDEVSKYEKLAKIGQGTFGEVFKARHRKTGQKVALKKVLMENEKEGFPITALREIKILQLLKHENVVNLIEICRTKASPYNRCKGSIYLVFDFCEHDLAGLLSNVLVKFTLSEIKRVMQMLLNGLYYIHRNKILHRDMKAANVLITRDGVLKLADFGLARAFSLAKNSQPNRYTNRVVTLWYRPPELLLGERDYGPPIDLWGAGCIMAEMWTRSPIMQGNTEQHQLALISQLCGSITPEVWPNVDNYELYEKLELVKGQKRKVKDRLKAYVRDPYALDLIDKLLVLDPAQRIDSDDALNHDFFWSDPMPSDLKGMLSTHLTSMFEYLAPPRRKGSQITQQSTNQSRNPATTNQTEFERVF
Chain of Cdk9/cyclinT1 (O60563 whole entry partner): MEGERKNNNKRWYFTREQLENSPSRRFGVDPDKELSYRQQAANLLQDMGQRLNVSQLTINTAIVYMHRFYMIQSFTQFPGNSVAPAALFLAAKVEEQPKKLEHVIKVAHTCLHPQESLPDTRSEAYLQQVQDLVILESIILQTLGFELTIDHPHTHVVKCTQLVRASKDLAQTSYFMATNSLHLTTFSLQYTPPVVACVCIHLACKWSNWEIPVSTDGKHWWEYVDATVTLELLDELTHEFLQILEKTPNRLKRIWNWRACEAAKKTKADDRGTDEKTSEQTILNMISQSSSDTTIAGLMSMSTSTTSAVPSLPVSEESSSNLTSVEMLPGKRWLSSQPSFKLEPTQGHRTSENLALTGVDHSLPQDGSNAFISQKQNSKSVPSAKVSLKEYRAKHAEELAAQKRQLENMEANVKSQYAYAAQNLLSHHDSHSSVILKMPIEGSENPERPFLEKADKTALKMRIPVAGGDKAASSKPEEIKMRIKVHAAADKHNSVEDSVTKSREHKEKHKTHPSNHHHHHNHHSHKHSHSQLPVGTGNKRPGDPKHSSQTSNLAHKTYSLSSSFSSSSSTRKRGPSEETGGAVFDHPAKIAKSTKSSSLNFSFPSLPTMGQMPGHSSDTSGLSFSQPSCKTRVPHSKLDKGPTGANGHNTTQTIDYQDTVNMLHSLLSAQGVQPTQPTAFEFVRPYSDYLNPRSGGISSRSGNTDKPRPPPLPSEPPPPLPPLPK

Point of comparison: `CC1(C)COC[C@H](CNc2nc(-c3cc(NC(=O)[C@@H]4CCCNC4)ncc3Cl)ccc2F)O1` (single isomer, unassigned) [Example 262], IC50 3 nM. Against it:
- O=C(Nc1cc(-c2cccc(NCC3CCOCC3)n2)c(Cl)cn1)[C@H]1CNC[C@@H]1O [Example 122, (3S,4R)-4-Hydroxy-pyrrolidine-3-carboxylic acid {5′-chloro-6-[(tetrahydro-pyran-4-ylmethyl)-amino]-[2,4′]bipyridinyl-2′-yl}-amide] — 5-fold higher, 15 nM
- CN1CC(C(=O)Nc2cc(-c3cccc(NCC4CCOCC4)n3)c(Cl)cn2)CC1=O (centres unmarked) [Example 60, 1-Methyl-5-oxo-pyrrolidine-3-carboxylic acid {5′-chloro-6-[(tetrahydro-pyran-4-ylmethyl)-amino]-[2,4′]bipyridinyl-2′-yl}-amide] — 3-fold higher, 9 nM
- CC(C)(C)OC(=O)N1CCC[C@@H](C(=O)Nc2cc(-c3cccc(NCC4CCOCC4)n3)c(Cl)cn2)C1 [Example 6, (R)-3-{5′-Chloro-6-[(tetrahydro-pyran-4-ylmethyl)-amino]-[2,4′]bipyridinyl-2′-ylcarbamoyl}-piperidine-1-carboxylic acid tert-butyl ester] — 31-fold higher, 92 nM
- CC1(C)CCC(C(=O)Nc2cc(-c3cccc(NCC4CCOCC4)n3)c(Cl)cn2)CN1 (centres unmarked) [Example 206, 6,6-Dimethyl-piperidine-3-carboxylic acid {5′-chloro-6-[(tetrahydro-pyran-4-ylmethyl)-amino]-[2,4′]bipyridinyl-2′-yl}-amide] — 3-fold lower, 1 nM
- O=C(Nc1cc(-c2ccc(F)c(NCC3CCOCC3)n2)c(Cl)cn1)[C@@H]1CCCNC1 [Example 135, (R)-Piperidine-3-carboxylic acid {5′-chloro-5-fluoro-6-[(tetrahydro-pyran-4-ylmethyl)-amino]-[2,4′]bipyridinyl-2′-yl}-amide] — 3-fold lower, 1 nM
- O=C1CCC(C(=O)Nc2cc(-c3cccc(NCC4CCOCC4)n3)c(Cl)cn2)CN1 (centres unmarked) [Example 61, 6-Oxo-piperidine-3-carboxylic acid {5′-chloro-6-[(tetrahydro-pyran-4-ylmethyl)-amino]-[2,4′]bipyridinyl-2′-yl}-amide] — not separable, < 8 nM
- O=C(Nc1cc(-c2cccc(NCC3CCOCC3)n2)c(Cl)cn1)[C@H]1CNCCO1 [Example 96, (R)-Morpholine-2-carboxylic acid {5′-chloro-6-[(tetrahydro-pyran-4-ylmethyl)-amino]-[2,4′]bipyridinyl-2′-yl}-amide] — 1.7-fold higher, 5 nM
- O=C(Nc1cc(-c2nc(NCC3CCOCC3)c(Cl)cc2Cl)c(Cl)cn1)[C@@H]1CCCNC1 [Example 134, (R)-Piperidine-3-carboxylic acid {3,5,5′-trichloro-6-[(tetrahydro-pyran-4-ylmethyl)-amino]-[2,4′]bipyridinyl-2′-yl}-amide] — not separable, < 8 nM
- C[C@@H]1CC[C@@H](C(=O)Nc2cc(-c3cccc(NC[C@H]4CCOC(C)(C)C4)n3)c(Cl)cn2)CN1 (single isomer, unassigned) [Example 244] — 3-fold lower, 1 nM
- O=C(Nc1cc(-c2cccc(NC[C@H]3CCCO3)n2)c(Cl)cn1)[C@@H]1CCCNC1 [Example 25, (R)-Piperidine-3-carboxylic acid (5′-chloro-6-{[(R)-1-(tetrahydro-furan-2-yl)methyl]-amino}-[2,4′]bipyridinyl-2′-yl)-amide] — 16-fold higher, 47 nM
- O=C(Nc1cc(-c2cccc(NC[C@@H]3CCCOC3)n2)c(Cl)cn1)[C@@H]1CCCNC1 (single isomer, unassigned) [Example 79] — not separable, < 8 nM
- O=C(Nc1cc(-c2cccc(NCc3ccccc3F)n2)c(Cl)cn1)[C@@H]1CCCNC1 [Example 51, (R)-Piperidine-3-carboxylic acid [5′-chloro-6-(2-fluoro-benzylamino)-[2,4′]bipyridinyl-2′-yl]-amide] — 3.3-fold higher, 10 nM
- CCN1CCCC(C(=O)Nc2cc(-c3cccc(NCC4CCOCC4)n3)c(Cl)cn2)C1 (centres unmarked) [Example 9, 1-Ethyl-piperidine-3-carboxylic acid {5′-chloro-6-[(tetrahydro-pyran-4-ylmethyl)-amino]-[2,4′]bipyridinyl-2′-yl}-amide] — 48-fold higher, 144 nM
- O=C(Nc1cc(-c2ccc(C(F)(F)F)c(NCC3CCOCC3)n2)c(Cl)cn1)[C@@H]1CCCNC1 [Example 217, (R)-Piperidine-3-carboxylic acid {5′-chloro-6-[(tetrahydro-pyran-4-ylmethyl)-amino]-5-trifluoromethyl-[2,4′]bipyridinyl-2′-yl}-amide] — within 1.5-fold, 4 nM
- CC1(C)CC(CNc2ccc(Cl)c(-c3cc(NC(=O)[C@@H]4CCCNC4)ncc3Cl)n2)CCO1 (stereo partly drawn) [Example 132, (R)-Piperidine-3-carboxylic acid {3,5′-dichloro-6-[(2,2-dimethyl-tetrahydro-pyran-4-ylmethyl)-amino]-[2,4′]bipyridinyl-2′-yl}-amide] — not separable, < 8 nM
- CS(=O)(=O)N[C@@H]1CC[C@H](C(=O)Nc2cc(-c3nc(NCC4CCOCC4)ccc3Cl)c(Cl)cn2)C1 [Example 109, (1S,3R)-3-Methanesulfonylamino-cyclopentanecarboxylic acid {3,5′-dichloro-6-[(tetrahydro-pyran-4-ylmethyl)-amino]-[2,4′]bipyridinyl-2′-yl}-amide] — not separable, < 8 nM
- CO[C@H]1CNC[C@@H]1C(=O)Nc1cc(-c2cccc(NCC3CCOC(C)(C)C3)n2)c(Cl)cn1 (stereo partly drawn) [Example 151, (3S,4R)-4-Methoxy-pyrrolidine-3-carboxylic acid {5′-chloro-6-[(2,2-dimethyl-tetrahydro-pyran-4-ylmethyl)-amino]-[2,4′]bipyridinyl-2′-yl}-amide] — not separable, < 8 nM
- CC[C@H]1CC[C@@H](C(=O)Nc2cc(-c3ccc(F)c(NCC4CCOCC4)n3)c(Cl)cn2)CN1 (racemic) [Example 252, (3R,6S)-/(3S,6R)-6-Ethyl-piperidine-3-carboxylic acid {5′-chloro-5-fluoro-6-[(tetrahydro-pyran-4-ylmethyl)-amino]-[2,4′]bipyridinyl-2′-yl}-amide] — 3-fold lower, 1 nM
- C[C@H]1CC[C@H](C(=O)Nc2cc(-c3cccc(NC[C@@H]4CCOC(C)(C)C4)n3)c(Cl)cn2)CN1 (single isomer, unassigned) [Example 243] — 1.5-fold lower, 2 nM
- O=C(Nc1cc(-c2cccc(NCC3CCOCC3)n2)c(Cl)cn1)[C@H]1CNC[C@H](C(F)(F)F)C1 (single isomer, unassigned) [Example 162] — 3.3-fold higher, 10 nM
- CC[C@@H]1CC[C@@H](C(=O)Nc2cc(-c3ccc(F)c(NCC4CCOCC4)n3)c(Cl)cn2)CN1 (single isomer, unassigned) [Example 256] — 3-fold lower, 1 nM
- O=C(Nc1cc(-c2cccc(NCC3CCCOC3)n2)c(Cl)cn1)[C@@H]1CCCNC1 (stereo partly drawn) [Example 18, (R)-Piperidine-3-carboxylic acid {5′-chloro-6-[(tetrahydro-pyran-3-ylmethyl)-amino]-[2,4′]bipyridinyl-2′-yl}-amide] — not separable, < 8 nM
- CC1(C)C[C@H](CNc2nc(-c3cc(NC(=O)[C@@H]4CCCNC4)ncc3Cl)ccc2F)CCO1 (single isomer, unassigned) [Example 215] — 3-fold lower, 1 nM
- O=C(Nc1cc(-c2cccc(NCC3CCCCC3)n2)c(Cl)cn1)[C@H]1CCCNC1 [Example 38, (S)-Piperidine-3-carboxylic acid [5′-chloro-6-(cyclohexylmethyl-amino)-[2,4′]bipyridinyl-2′-yl]-amide] — 7.7-fold higher, 23 nM
- CC(=O)N1CCC(CNc2cccc(-c3cc(NC(=O)[C@@H]4CCCNC4)ncc3Cl)n2)CC1 [Example 30, (R)-Piperidine-3-carboxylic acid {6-[(1-acetyl-piperidin-4-ylmethyl)-amino]-5′-chloro-[2,4′]bipyridinyl-2′-yl}-amide] — not separable, < 8 nM
- C[C@@H]1CC(CNc2cccc(-c3cc(NC(=O)[C@@H]4CCCNC4)ncc3Cl)n2)C[C@H](C)O1 (stereo partly drawn) [Example 159, (R)-Piperidine-3-carboxylic acid {5′-chloro-6-[((2R,6S)-2,6-dimethyl-tetrahydro-pyran-4-ylmethyl)-amino]-[2,4′]bipyridinyl-2′-yl}-amide] — 3-fold lower, 1 nM
- CC1(C)CO[C@H](CNc2nc(-c3cc(NC(=O)[C@@H]4CCCNC4)ncc3Cl)ccc2F)CO1 (single isomer, unassigned) [Example 265] — 3-fold lower, 1 nM
- CO[C@H]1CNC[C@@H]1C(=O)Nc1cc(-c2cccc(NCC3C[C@@H](C)O[C@@H](C)C3)n2)c(Cl)cn1 (stereo partly drawn) [Example 171, (3S,4R)-4-Methoxy-pyrrolidine-3-carboxylic acid {5′-chloro-6-[((2R,6S)-2,6-dimethyl-tetrahydro-pyran-4-ylmethyl)-amino]-[2,4′]bipyridinyl-2′-yl}-amide] — 3-fold lower, 1 nM
- CC1(C)C[C@H](CNc2cccc(-c3cc(NC(=O)[C@@H]4CCCNC4)ncc3Cl)n2)CCO1 (single isomer, unassigned) [Example 115] — 3-fold lower, 1 nM
- O=C(Nc1cc(-c2nc(NCC3CCOCC3)ccc2F)c(Cl)cn1)C1CNCCOC1 (single isomer, unassigned) [Example 223] — within 1.5-fold, 4 nM

Same assay, conditions: Cdk9_cyclinT1_IC50, generated using one of the two Cdk9/cyclinT1 assays (IMAP or Alpha Screen), not specified per value; ATP 6 uM

Point of comparison: `O=C(Nc1cc(-c2cncc(F)c2)c(Cl)cn1)[C@@H]1CCCNC1` [Example 308, (R)-Piperidine-3-carboxylic acid (5′-chloro-5-fluoro-[3,4′]bipyridinyl-2′-yl)-amide], IC50 531 nM. Against it:
- CC1(C)CC(CNc2cnc(Cl)c(-c3cc(NC(=O)[C@H]4CNCCO4)ncc3Cl)c2)CCO1 (stereo partly drawn) [Example 315, (R)-Morpholine-2-carboxylic acid {2,5′-dichloro-5-[(2,2-dimethyl-tetrahydro-pyran-4-ylmethyl)-amino]-[3,4′]bipyridinyl-2′-yl}-amide] — 130-fold lower, 4 nM
- COc1cncc(-c2cc(NC(=O)[C@@H]3CCCNC3)ncc2Cl)c1 [Example 307, (R)-Piperidine-3-carboxylic acid (5′-chloro-5-methoxy-[3,4′]bipyridinyl-2′-yl)-amide] — 2.2-fold lower, 239 nM
- Cc1ncc(-c2cc(NC(=O)[C@@H]3CCCNC3)ncc2Cl)cc1NCC1CCOCC1 [Example 311, (R)-Piperidine-3-carboxylic acid {5′-chloro-6-methyl-5-[(tetrahydro-pyran-4-ylmethyl)-amino]-[3,4′]bipyridinyl-2′-yl}-amide] — 5.2-fold lower, 103 nM
